Reference: US12077503B2, “Substituted cyclic amides and their use as herbicides” (FMC CORPORATION, priority 2015, dated 2024)

How the values were obtained:
Type in all cases: in vivo
[1] = system: barnyardgrass (Echinochloa crus-galli); test: Test G Pre-Emergence Protocol; conditions: Echinochloa crus-galli, pre-emergence, 312 h, evaluated after 13 days; for pest or weed control at 15.625 g/ha: 15.625 g ai/ha, read-out: Barnyard grass damage rating (100=total damage to plant; 0=no damage to plant); for pest or weed control at 62.5 g/ha: 62.5 g ai/ha, 100=total damage to plant, 0=no damage to plant, read-out: plant damage rating, Barnyardgrass; for pest or weed control at 250 g/ha: 250 g ai/ha, read-out: Barnyardgrass damage rating (100=total damage to plant; 0=no damage to plant)
How it was run: (§1)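 Test compound in 0.5% Tween 20 acetone/water (50:50) was applied at three rates (15.625, 62.5, 250 g/ha) to soil sown one day earlier. After 13 days plants were scored for injury, where 0 means unaffected and 100 means completely damaged.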

corn (Zea mays) [2] = test: Test G Pre-Emergence Protocol; conditions: Zea mays, pre-emergence, 312 h, evaluated after 13 days; for plant injury at 15.625 g/ha: 15.625 g ai/ha; for plant injury at 15.625 g/ha / plant injury at 250 g/ha: read-out: Corn damage rating (100=total damage to plant; 0=no damage to plant); for plant injury at 62.5 g/ha: 62.5 g ai/ha, 100=total damage to plant, 0=no damage to plant, read-out: plant damage rating, Corn; for plant injury at 250 g/ha: 250 g ai/ha
How it was run: as §1

[3] = system: giant foxtail (Setaria faberi); test: Test G Pre-Emergence Protocol; conditions: Setaria faberi, pre-emergence, 312 h, evaluated after 13 days; for pest or weed control at 15.625 g/ha: 15.625 g ai/ha; for pest or weed control at 15.625 g/ha / pest or weed control at 250 g/ha: read-out: Foxtail, Giant damage rating (100=total damage to plant; 0=no damage to plant); for pest or weed control at 62.5 g/ha: 62.5 g ai/ha, 100=total damage to plant, 0=no damage to plant, read-out: plant damage rating, Foxtail, Giant; for pest or weed control at 250 g/ha: 250 g ai/ha
How it was run: as §1

[4] = system: ivy-leaved morning glory (Ipomoea hederacea); test: Test G Pre-Emergence Protocol; conditions: Ipomoea, pre-emergence, 312 h, evaluated after 13 days; for pest or weed control at 15.625 g/ha: 15.625 g ai/ha, read-out: Morning-glory, Ivy-leaved damage rating (100=total damage to plant; 0=no damage to plant); for pest or weed control at 62.5 g/ha: 62.5 g ai/ha, 100=total damage to plant, 0=no damage to plant, read-out: plant damage rating, Morningglory, Ivy-leaved; for pest or weed control at 250 g/ha: 250 g ai/ha, read-out: Morningglory, Ivy-leaved damage rating (100=total damage to plant; 0=no damage to plant)
How it was run: as §1

[5] = system: redroot pigweed (Amaranthus retroflexus); test: Test G Pre-Emergence Protocol; conditions: Amaranthus retroflexus, pre-emergence, 312 h, evaluated after 13 days; for pest or weed control at 15.625 g/ha: 15.625 g ai/ha; for pest or weed control at 15.625 g/ha / pest or weed control at 250 g/ha: read-out: Pigweed, Redroot damage rating (100=total damage to plant; 0=no damage to plant); for pest or weed control at 62.5 g/ha: 62.5 g ai/ha, 100=total damage to plant, 0=no damage to plant, read-out: plant damage rating, Pigweed, Redroot; for pest or weed control at 250 g/ha: 250 g ai/ha
How it was run: as §1

[6] = system: velvetleaf (Abutilon theophrasti); test: Test G Pre-Emergence Protocol; conditions: Abutilon theophrasti, pre-emergence, 312 h, evaluated after 13 days; for pest or weed control at 15.625 g/ha: 15.625 g ai/ha; for pest or weed control at 15.625 g/ha / pest or weed control at 250 g/ha: read-out: Velvetleaf damage rating (100=total damage to plant; 0=no damage to plant); for pest or weed control at 62.5 g/ha: 62.5 g ai/ha, 100=total damage to plant, 0=no damage to plant, read-out: plant damage rating, Velvetleaf; for pest or weed control at 250 g/ha: 250 g ai/ha
How it was run: as §1

[7] = system: barnyardgrass (Echinochloa crus-galli); test: Test G Post-Emergence Protocol; conditions: Echinochloa crus-galli, post-emergence, 312 h; for pest or weed control at 15.625 g/ha: 15.625 g ai/ha, evaluated after 13 days (100=total damage to plant; 0=no damage to plant), read-out: Barnyardgrass damage rating; for pest or weed control at 62.5 g/ha: 62.5 g ai/ha, read-out: Barnyardgrass damage rating (100=total damage to plant; 0=no damage to plant); for pest or weed control at 62.5 g/ha / pest or weed control at 250 g/ha: evaluated after 13 days; for pest or weed control at 250 g/ha: 250 g ai/ha, read-out: damage to plant, Barnyardgrass (100=total damage to plant; 0=no damage to plant)
How it was run: (§2)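 Post-emergence herbicidal damage, scored visually 0–100 at 13 days. Application at 15.625, 62.5 or 250 g/ha onto 8-day-old plants grown under glasshouse control.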

corn (Zea mays) [8] = test: Test G Post-Emergence Protocol; conditions: Zea mays, post-emergence, 312 h; for plant injury at 15.625 g/ha: 15.625 g ai/ha, evaluated after 13 days (100=total damage to plant; 0=no damage to plant), read-out: Corn damage rating; for plant injury at 62.5 g/ha: 62.5 g ai/ha, read-out: Corn damage rating (100=total damage to plant; 0=no damage to plant); for plant injury at 62.5 g/ha / plant injury at 250 g/ha: evaluated after 13 days; for plant injury at 250 g/ha: 250 g ai/ha, read-out: damage to plant, Corn (100=total damage to plant; 0=no damage to plant)
How it was run: as §2

[9] = system: giant foxtail (Setaria faberi); test: Test G Post-Emergence Protocol; conditions: Setaria faberi, post-emergence, 312 h; for pest or weed control at 15.625 g/ha: 15.625 g ai/ha, evaluated after 13 days (100=total damage to plant; 0=no damage to plant), read-out: Foxtail, Giant damage rating; for pest or weed control at 62.5 g/ha: 62.5 g ai/ha, read-out: Foxtail, Giant damage rating (100=total damage to plant; 0=no damage to plant); for pest or weed control at 62.5 g/ha / pest or weed control at 250 g/ha: evaluated after 13 days; for pest or weed control at 250 g/ha: 250 g ai/ha, read-out: damage to plant, Foxtail, Giant (100=total damage to plant; 0=no damage to plant)
How it was run: as §2

[10] = system: ivy-leaved morning glory (Ipomoea hederacea); test: Test G Post-Emergence Protocol; conditions: Ipomoea, post-emergence, 312 h; for pest or weed control at 15.625 g/ha: 15.625 g ai/ha, evaluated after 13 days (100=total damage to plant; 0=no damage to plant), read-out: Morningglory, Ivy-leaved damage rating; for pest or weed control at 62.5 g/ha: 62.5 g ai/ha, read-out: Morningglory, Ivy-leaved damage rating (100=total damage to plant; 0=no damage to plant); for pest or weed control at 62.5 g/ha / pest or weed control at 250 g/ha: evaluated after 13 days; for pest or weed control at 250 g/ha: 250 g ai/ha, read-out: damage to plant, Morningglory, Ivy-leaved (100=total damage to plant; 0=no damage to plant)
How it was run: as §2

[11] = system: redroot pigweed (Amaranthus retroflexus); test: Test G Post-Emergence Protocol; conditions: Amaranthus retroflexus, post-emergence, 312 h; for pest or weed control at 15.625 g/ha: 15.625 g ai/ha, evaluated after 13 days (100=total damage to plant; 0=no damage to plant), read-out: Pigweed, Redroot damage rating; for pest or weed control at 62.5 g/ha: 62.5 g ai/ha, read-out: Pigweed, Redroot damage rating (100=total damage to plant; 0=no damage to plant); for pest or weed control at 62.5 g/ha / pest or weed control at 250 g/ha: evaluated after 13 days; for pest or weed control at 250 g/ha: 250 g ai/ha, read-out: damage to plant, Pigweed, Redroot (100=total damage to plant; 0=no damage to plant)
How it was run: as §2

[12] = system: velvetleaf (Abutilon theophrasti); test: Test G Post-Emergence Protocol; conditions: Abutilon theophrasti, post-emergence, 312 h; for pest or weed control at 15.625 g/ha: 15.625 g ai/ha, evaluated after 13 days (100=total damage to plant; 0=no damage to plant), read-out: Velvetleaf damage rating; for pest or weed control at 62.5 g/ha: 62.5 g ai/ha, read-out: Velvetleaf damage rating (100=total damage to plant; 0=no damage to plant); for pest or weed control at 62.5 g/ha / pest or weed control at 250 g/ha: evaluated after 13 days; for pest or weed control at 250 g/ha: 250 g ai/ha, read-out: damage to plant, Velvetleaf (100=total damage to plant; 0=no damage to plant)
How it was run: as §2

SMILES	pest or weed control at 15.625 g/ha [1] [%]	pest or weed control at 62.5 g/ha [1] [%]	pest or weed control at 250 g/ha [1] [%]	plant injury at 15.625 g/ha (corn (Zea mays) [2]) [%]	plant injury at 62.5 g/ha (corn (Zea mays) [2]) [%]	plant injury at 250 g/ha (corn (Zea mays) [2]) [%]	pest or weed control at 15.625 g/ha [3] [%]	pest or weed control at 62.5 g/ha [3] [%]	pest or weed control at 250 g/ha [3] [%]	pest or weed control at 15.625 g/ha [4] [%]	pest or weed control at 62.5 g/ha [4] [%]	pest or weed control at 250 g/ha [4] [%]	pest or weed control at 15.625 g/ha [5] [%]	pest or weed control at 62.5 g/ha [5] [%]	pest or weed control at 250 g/ha [5] [%]	pest or weed control at 15.625 g/ha [6] [%]	pest or weed control at 62.5 g/ha [6] [%]	pest or weed control at 250 g/ha [6] [%]	pest or weed control at 15.625 g/ha [7] [%]	pest or weed control at 62.5 g/ha [7] [%]	also measured
CN1C[C@@H](c2ccc(C(F)(F)F)cc2)[C@H](C(=O)Nc2cn(C)nn2)C1=O (racemic) [Compound 1527]	0	0	0	0	0	0	0	0	0	0	0	0	0	0	0	0	0	0	0	0	pest or weed control at 250 g/ha [7]: 0%; plant injury at 15.625 g/ha (corn (Zea mays) [8]): 10%; plant injury at 62.5 g/ha (corn (Zea mays) [8]): 10%; plant injury at 250 g/ha (corn (Zea mays) [8]): 10%; pest or weed control at 15.625 g/ha [9]: 0%; pest or weed control at 62.5 g/ha [9]: 0%; pest or weed control at 250 g/ha [9]: 0%; pest or weed control at 15.625 g/ha [10]: 0%; pest or weed control at 62.5 g/ha [10]: 0%; pest or weed control at 250 g/ha [10]: 0%; pest or weed control at 15.625 g/ha [11]: 0%; pest or weed control at 62.5 g/ha [11]: 0%; pest or weed control at 250 g/ha [11]: 0%; pest or weed control at 15.625 g/ha [12]: 0%; pest or weed control at 62.5 g/ha [12]: 0%; pest or weed control at 250 g/ha [12]: 0%
CN1C[C@@H](c2ccc(C(F)(F)F)cc2)[C@H](C(=O)Nc2ncccn2)C1=O (racemic) [Compound 1564]	0	0	0	0	0	10	0	0	0	0	0	0	0	0	0	0	0	0	0	0	pest or weed control at 250 g/ha [7]: 20%; plant injury at 15.625 g/ha (corn (Zea mays) [8]): 0%; plant injury at 62.5 g/ha (corn (Zea mays) [8]): 0%; plant injury at 250 g/ha (corn (Zea mays) [8]): 10%; pest or weed control at 15.625 g/ha [9]: 0%; pest or weed control at 62.5 g/ha [9]: 0%; pest or weed control at 250 g/ha [9]: 10%; pest or weed control at 15.625 g/ha [10]: 0%; pest or weed control at 62.5 g/ha [10]: 0%; pest or weed control at 250 g/ha [10]: 0%; pest or weed control at 15.625 g/ha [11]: 0%; pest or weed control at 62.5 g/ha [11]: 0%; pest or weed control at 250 g/ha [11]: 10%; pest or weed control at 15.625 g/ha [12]: 0%; pest or weed control at 62.5 g/ha [12]: 0%; pest or weed control at 250 g/ha [12]: 0%
COc1cncc(NC(=O)[C@@H]2C(=O)N(C)C[C@H]2c2ccc(C(F)(F)F)cc2)n1 (racemic) [Compound 1565]	0	0	10	0	0	0	0	0	60	0	0	0	0	0	10	0	0	0	0	0	pest or weed control at 250 g/ha [7]: 10%; plant injury at 15.625 g/ha (corn (Zea mays) [8]): 0%; plant injury at 62.5 g/ha (corn (Zea mays) [8]): 0%; plant injury at 250 g/ha (corn (Zea mays) [8]): 10%; pest or weed control at 15.625 g/ha [9]: 0%; pest or weed control at 62.5 g/ha [9]: 0%; pest or weed control at 250 g/ha [9]: 50%; pest or weed control at 15.625 g/ha [10]: 0%; pest or weed control at 62.5 g/ha [10]: 0%; pest or weed control at 250 g/ha [10]: 0%; pest or weed control at 15.625 g/ha [11]: 0%; pest or weed control at 62.5 g/ha [11]: 0%; pest or weed control at 250 g/ha [11]: 0%; pest or weed control at 15.625 g/ha [12]: 0%; pest or weed control at 62.5 g/ha [12]: 0%; pest or weed control at 250 g/ha [12]: 30%
